{
  "source": "ChEMBL document CHEMBL1153627",
  "about": "“Optimization of piperidin-4-yl-urea-containing melanin-concentrating hormone receptor 1 (MCH-R1) antagonists: Reducing hERG-associated liabilities” (Bioorg Med Chem Lett, 2009)",
  "experiment": "Clearance in rat",
  "type": "ADME, organism-based",
  "conditions": "in vivo",
  "data": [
    {"compound": "O=C(NC1CCN(Cc2ccn(-c3ccc(C(F)(F)F)cc3)c2)CC1)N[C@H](CO)c1ccccc1", "values": [
      {"measurement": "clearance", "value": 154, "unit": "mL/min/kg"}
    ]}
  ]
}
